Reference: ChEMBL document CHEMBL3091402, “Identification of clinical candidates from the benzazepine class of histamine H3 receptor antagonists” (Bioorg Med Chem Lett, 2013)
pEC50, pIC50, pKi: −log10 of the molar value. Active and inactive are the calls of the source. The calls are words filed in the database; no cut-off is given here.

How the values were obtained:
[1] = test system: Rattus norvegicus; assay: Cognitive enhancing effect in Lister Hooded rat assessed as increase of time spent exploring novel versus familiar objects in T2 at 0.3 to 1 mg/kg, po bid; format: functional, organism-based
[2] = test system: Rattus norvegicus; assay: Cognitive enhancing effect against scopolamine-induced memory deficit in Wistar rat assessed as passive avoidance response at 3 mg/kg, po after 24 hrs; format: functional, organism-based; set-up: dose 3 mg/kg
[3] = test system: Rattus norvegicus; assay: Cognitive enhancing effect against scopolamine-induced memory deficit in po dosed Wistar rat assessed as passive avoidance response after 24 hrs; format: functional, organism-based
[4] = Oral bioavailability in cynomolgus monkey; format: ADME, organism-based, Macaca fascicularis; details: in vivo
[5] = Terminal half life in po dosed cynomolgus monkey; format: ADME, organism-based, Macaca fascicularis; details: in vivo, read-out: beta t1/2 (converted)
[6] = Tmax in po dosed cynomolgus monkey; format: ADME, organism-based, Macaca fascicularis; details: in vivo
[7] = organism: Rattus norvegicus; assay: Ex vivo receptor occupancy of histamine H3 receptor in rat brain; format: functional, organism-based
[8] = Cmax in po dosed cynomolgus monkey; format: ADME, organism-based, Macaca fascicularis; set-up: route oral; details: in vivo
[9] = Terminal half life in iv dosed cynomolgus monkey; format: ADME, organism-based, Macaca fascicularis; details: in vivo, read-out: beta t1/2 (converted)
[10] = Cmax in iv dosed cynomolgus monkey; format: ADME, organism-based, Macaca fascicularis; set-up: route intravenous; details: in vivo
[11] = Volume of distribution at steady-state in iv dosed cynomolgus monkey; format: ADME, organism-based, Macaca fascicularis; details: in vivo, read-out: Vdss
[12] = Total blood clearance in iv dosed cynomolgus monkey; format: ADME, organism-based, Macaca fascicularis; details: whole blood
[13] = Oral bioavailability in Beagle dog; format: ADME, organism-based, Canis lupus familiaris; details: in vivo
[14] = Terminal half life in po dosed Beagle dog; format: ADME, organism-based, Canis lupus familiaris; details: in vivo, read-out: beta t1/2 (converted)
[15] = Tmax in po dosed Beagle dog; format: ADME, organism-based, Canis lupus familiaris; details: in vivo
[16] = Ratio of drug level in brain to blood in human; format: ADME, tissue-based
[17] = Cmax in po dosed Beagle dog; format: ADME, organism-based, Canis lupus familiaris; set-up: route oral; details: in vivo
[18] = Cmax in iv dosed Beagle dog; format: ADME, organism-based, Canis lupus familiaris; set-up: route intravenous; details: in vivo
[19] = Terminal half life in iv dosed Beagle dog; format: ADME, organism-based, Canis lupus familiaris; details: in vivo, read-out: beta t1/2 (converted)
[20] = Volume of distribution at steady-state in iv dosed Beagle dog; format: ADME, organism-based, Canis lupus familiaris; details: in vivo, read-out: Vdss
[21] = Total blood clearance in iv dosed Beagle dog; format: ADME, organism-based, Canis lupus familiaris; details: whole blood
[22] = Oral bioavailability in Sprague-Dawley rat; format: ADME, organism-based; details: in vivo
[23] = Tmax in po dosed Sprague-Dawley rat; format: ADME, organism-based; details: in vivo
[24] = Terminal half life in po dosed Sprague-Dawley rat; format: ADME, organism-based; details: in vivo, read-out: beta t1/2 (converted)
[25] = Cmax in po dosed Sprague-Dawley rat; format: ADME, organism-based; set-up: route oral; details: in vivo
[26] = Ratio of drug level in brain to blood in iv dosed Sprague-Dawley rat; format: ADME, organism-based
[27] = Terminal half life in iv dosed Sprague-Dawley rat; format: ADME, organism-based; details: in vivo, read-out: beta t1/2 (converted)
[28] = Cmax in iv dosed Sprague-Dawley rat; format: ADME, organism-based; set-up: route intravenous; details: in vivo
[29] = Volume of distribution at steady-state in iv dosed Sprague-Dawley rat; format: ADME, organism-based; details: in vivo, read-out: Vdss
[30] = Total blood clearance in iv dosed Sprague-Dawley rat; format: ADME, organism-based; details: whole blood
[31] = test system: Liver microsome; assay: Intrinsic clearance in human liver microsomes; format: ADME
[32] = Time dependent inhibition of CYP450 (unknown origin); format: ADME, Homo sapiens
[33] = target: hERG (KCNH2) (Homo sapiens, UniProt Q12809); assay: Inhibition of human ERG at 10 uM by patch clamp experiment
[34] = Aqueous solubility of the compound; format: physicochemical
[35] = target: Histamine H4 receptor (Homo sapiens, UniProt Q9H3N8); assay: Binding affinity to human histamine H4 receptor
[36] = target: Histamine H1 receptor (Homo sapiens, UniProt P35367); assay: Binding affinity to human histamine H1 receptor
[37] = target: Histamine H2 receptor (Homo sapiens, UniProt P25021); assay: Binding affinity to human histamine H2 receptor
[38] = target: T1, Histamine H3 receptor (Rattus norvegicus, UniProt Q9QYN8); assay: Displacement of [3H]-R-alpha-ethylhistamine from rat histamine H3 receptor expressed in HEK293 cells after 45 mins by liquid scintillation spectrometry; format: cell-based
[39] = target: T2, Histamine H3 receptor (Homo sapiens, UniProt Q9Y5N1); assay: Displacement of [3H]-R-alpha-ethylhistamine from human histamine H3 receptor expressed in HEK293 cells after 45 mins by liquid scintillation spectrometry
[40] = test system: Liver microsome; assay: Intrinsic clearance in rat liver microsomes; format: ADME
[41] = target: T2, Histamine H3 receptor; assay: Displacement of [3H]-R-alpha-ethylhistamine from histamine H3 receptor in human cerebral cortical tissue membranes after 45 mins by liquid scintillation spectrometry
[42] = test system: Rattus norvegicus; assay: Reversal of RAMH-induced dipsogenia in po dosed Lister Hooded rat treated 2 hrs before RAMH challenge measured after 1 hr; format: functional
[43] = Ratio of drug level in brain to blood in rat at 3 mg/kg, po; format: ADME, organism-based; set-up: dose 3 mg/kg, route oral
[44] = test system: Blood; assay: Drug level in rat blood at 3 mg/kg, po; format: ADME, organism-based; set-up: dose 3 mg/kg, route oral; details: in vivo, read-out: Drug uptake
[45] = test system: Rattus norvegicus; assay: Ex vivo binding affinity to histamine H3 receptor in rat cerebral cortex using [3H]-R-alpha-ethylhistamine at 3 mg/kg, po after 3 hrs by HPLC analysis; format: functional
[46] = test system: Rattus norvegicus; assay: Ex vivo binding affinity to histamine H3 receptor in po dosed rat cerebral cortex using [3H]-R-alpha-ethylhistamine after 2 hrs by HPLC analysis; format: functional
[47] = target: T1, Histamine H3 receptor; assay: Displacement of [3H]-R-alpha-ethylhistamine from histamine H3 receptor in rat cerebral cortical tissue membranes after 45 mins by liquid scintillation spectrometry
[48] = target: T2, Histamine H3 receptor; assay: Antagonist activity at human histamine H3 receptor expressed in CHOK1 cells assessed as inhibition of GTPgammaS binding; format: functional, cell-based, CHO-K1

T2 sequence (Q9Y5N1 whole entry): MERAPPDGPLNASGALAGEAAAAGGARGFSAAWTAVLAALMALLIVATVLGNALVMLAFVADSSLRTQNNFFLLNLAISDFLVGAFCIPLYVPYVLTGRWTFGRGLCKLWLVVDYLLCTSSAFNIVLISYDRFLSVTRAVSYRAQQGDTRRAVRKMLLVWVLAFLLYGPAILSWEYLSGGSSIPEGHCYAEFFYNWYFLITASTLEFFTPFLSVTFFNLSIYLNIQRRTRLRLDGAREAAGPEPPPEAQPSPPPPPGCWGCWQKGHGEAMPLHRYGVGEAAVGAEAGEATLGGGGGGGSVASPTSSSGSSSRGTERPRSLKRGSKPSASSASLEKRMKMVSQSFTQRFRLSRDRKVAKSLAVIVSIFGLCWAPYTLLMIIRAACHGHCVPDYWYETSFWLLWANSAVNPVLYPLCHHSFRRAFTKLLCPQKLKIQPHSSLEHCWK
T1 sequence (Q9QYN8 whole entry): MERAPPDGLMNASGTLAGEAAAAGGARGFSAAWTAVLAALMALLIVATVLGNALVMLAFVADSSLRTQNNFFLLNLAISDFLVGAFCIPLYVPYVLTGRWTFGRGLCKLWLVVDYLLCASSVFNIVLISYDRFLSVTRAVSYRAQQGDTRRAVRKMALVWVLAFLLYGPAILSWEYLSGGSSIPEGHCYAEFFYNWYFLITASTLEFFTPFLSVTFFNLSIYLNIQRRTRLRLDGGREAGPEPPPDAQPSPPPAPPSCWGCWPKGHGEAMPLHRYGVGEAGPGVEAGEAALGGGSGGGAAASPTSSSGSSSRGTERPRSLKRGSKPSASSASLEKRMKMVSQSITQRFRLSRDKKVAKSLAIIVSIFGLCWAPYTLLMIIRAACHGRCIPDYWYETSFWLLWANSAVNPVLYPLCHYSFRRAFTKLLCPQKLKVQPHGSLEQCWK
Chain of Histamine H4 receptor (Q9H3N8 whole entry): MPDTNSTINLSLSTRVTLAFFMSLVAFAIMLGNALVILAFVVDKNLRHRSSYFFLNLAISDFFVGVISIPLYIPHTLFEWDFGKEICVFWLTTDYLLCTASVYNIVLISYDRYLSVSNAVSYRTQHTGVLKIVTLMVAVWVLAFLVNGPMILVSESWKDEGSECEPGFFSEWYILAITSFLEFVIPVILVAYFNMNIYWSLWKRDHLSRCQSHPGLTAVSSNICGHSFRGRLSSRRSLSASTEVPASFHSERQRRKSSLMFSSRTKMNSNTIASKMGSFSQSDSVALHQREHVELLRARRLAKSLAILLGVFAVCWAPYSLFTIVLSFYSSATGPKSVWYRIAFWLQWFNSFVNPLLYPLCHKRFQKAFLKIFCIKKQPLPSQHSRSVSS
Chain of Histamine H1 receptor (P35367 whole entry): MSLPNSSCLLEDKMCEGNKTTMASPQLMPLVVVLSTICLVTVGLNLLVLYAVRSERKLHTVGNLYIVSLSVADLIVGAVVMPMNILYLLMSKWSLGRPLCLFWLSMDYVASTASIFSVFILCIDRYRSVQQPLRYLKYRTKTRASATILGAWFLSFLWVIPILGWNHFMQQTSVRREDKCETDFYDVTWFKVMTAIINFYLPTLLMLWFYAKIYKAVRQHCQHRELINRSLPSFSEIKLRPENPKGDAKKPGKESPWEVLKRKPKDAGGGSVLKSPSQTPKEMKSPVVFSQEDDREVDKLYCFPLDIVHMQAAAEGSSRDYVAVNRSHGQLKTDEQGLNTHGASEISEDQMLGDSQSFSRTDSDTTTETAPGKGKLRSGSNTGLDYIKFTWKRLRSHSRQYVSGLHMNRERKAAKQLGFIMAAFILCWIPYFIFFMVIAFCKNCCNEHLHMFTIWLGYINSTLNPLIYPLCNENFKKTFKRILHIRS
Chain of hERG (KCNH2) (Q12809 whole entry): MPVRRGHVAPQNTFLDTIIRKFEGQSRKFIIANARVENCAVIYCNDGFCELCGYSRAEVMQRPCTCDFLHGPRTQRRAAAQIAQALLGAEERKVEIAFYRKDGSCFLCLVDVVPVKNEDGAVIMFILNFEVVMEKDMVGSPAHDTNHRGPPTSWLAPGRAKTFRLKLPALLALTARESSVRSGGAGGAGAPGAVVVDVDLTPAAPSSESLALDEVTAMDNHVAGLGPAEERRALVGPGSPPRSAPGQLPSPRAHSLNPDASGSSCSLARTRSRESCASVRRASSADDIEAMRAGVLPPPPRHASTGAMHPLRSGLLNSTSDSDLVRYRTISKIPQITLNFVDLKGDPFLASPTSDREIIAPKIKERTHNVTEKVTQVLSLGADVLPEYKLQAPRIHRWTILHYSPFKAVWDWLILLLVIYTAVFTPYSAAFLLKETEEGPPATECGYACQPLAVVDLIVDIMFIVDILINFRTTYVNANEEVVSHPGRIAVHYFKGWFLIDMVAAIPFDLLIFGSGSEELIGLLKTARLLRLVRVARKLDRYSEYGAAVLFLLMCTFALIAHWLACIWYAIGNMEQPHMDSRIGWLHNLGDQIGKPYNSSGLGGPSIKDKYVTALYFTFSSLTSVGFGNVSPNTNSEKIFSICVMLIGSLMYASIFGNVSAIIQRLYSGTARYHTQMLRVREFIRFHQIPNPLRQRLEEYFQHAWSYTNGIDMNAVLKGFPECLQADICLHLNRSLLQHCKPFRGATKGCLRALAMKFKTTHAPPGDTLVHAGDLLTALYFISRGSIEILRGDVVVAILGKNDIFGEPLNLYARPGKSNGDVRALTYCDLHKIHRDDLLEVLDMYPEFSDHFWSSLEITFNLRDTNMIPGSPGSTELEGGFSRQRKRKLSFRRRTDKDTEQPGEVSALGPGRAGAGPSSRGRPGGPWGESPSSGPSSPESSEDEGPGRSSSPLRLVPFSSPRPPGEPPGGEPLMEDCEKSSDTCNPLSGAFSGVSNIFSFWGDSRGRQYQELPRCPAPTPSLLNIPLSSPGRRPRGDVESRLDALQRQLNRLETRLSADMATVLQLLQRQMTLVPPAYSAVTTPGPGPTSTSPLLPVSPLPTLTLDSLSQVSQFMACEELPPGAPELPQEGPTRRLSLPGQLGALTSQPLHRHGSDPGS
Chain of Histamine H2 receptor (P25021 whole entry): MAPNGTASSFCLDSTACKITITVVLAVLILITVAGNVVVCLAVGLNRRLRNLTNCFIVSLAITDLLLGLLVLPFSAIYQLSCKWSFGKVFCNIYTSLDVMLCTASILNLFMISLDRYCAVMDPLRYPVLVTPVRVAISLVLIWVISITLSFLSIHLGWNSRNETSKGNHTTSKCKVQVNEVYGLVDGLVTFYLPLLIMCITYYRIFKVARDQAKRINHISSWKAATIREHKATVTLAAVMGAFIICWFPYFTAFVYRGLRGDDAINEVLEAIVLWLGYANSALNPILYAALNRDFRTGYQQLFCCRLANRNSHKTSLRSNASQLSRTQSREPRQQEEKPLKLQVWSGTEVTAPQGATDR

O=C1CCCN1c1ccc(Oc2ccc3c(c2)CCN(C2CCC2)CC3)nc1 [GSK239512]
Activity [1]: Active | Activity [2]: Active | Activity [3]: Dose-dependent effect | bioavailability [4]: 55% | half-life [5]: 1.7 h | Tmax [6]: 1.3 h | pEC50 [7]: 7.82 | Cmax [8]: 145 nM | half-life [9]: 1.7 h | Cmax [10]: 383 nM | Vd [11]: 3.2 L/kg | clearance [12]: 28 mL/min/kg | bioavailability [13]: 33% | half-life [14]: 1.8 h | Tmax [15]: 0.7 h | Kp [16]: 1.83 | Cmax [17]: 120 nM | Cmax [18]: 393 nM | half-life [19]: 1.7 h | Vd [20]: 2.8 L/kg | clearance [21]: 22 mL/min/kg | bioavailability [22]: 51% | Tmax [23]: 1 h | half-life [24]: 2.1 h | Cmax [25]: 348 nM | Kp [26]: 1.83 | half-life [27]: 1.2 h | Cmax [28]: 671 nM | Vd [29]: 3.1 L/kg | clearance [30]: 39 mL/min/kg | CLH [31]: 0.6 mL/min/g | pIC50 [32]: < 5.00 | inhibition at 10 µM [33]: < 10% | solubility [34]: > 10000 µg/mL | pKi [35]: < 5.50 | pKi [36]: 5.60 | pKi [37]: < 5.50 | pKi [38]: 9.83 | pKi [39]: 9.69 | CLH [40]: 1.6 mL/min/g | pKi [41]: 9.92 | ED50 [42]: 0.04 mg/kg | Kp [43]: 1 | concentration [44]: 410 nM | Activity [45]: 95% | ED50 [46]: 0.08 mg/kg | pKi [47]: 9.44 | pKi [48]: 10.00
